From PubChem BioAssay (NCI)
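Briefly, cells in 96-well plates were exposed to five compound concentrations for 48 h, and endpoints were estimated by linear interpolation. TGI is the concentration that stops growth completely.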

Key:
Experiment in all cases: inhibition of tumour cell growth, NCI panel, 48 h
[1] = test system: HCT-116 colon
[2] = test system: PC-3 prostate
[3] = test system: UACC-257 melanoma
[4] = test system: DU-145 prostate
[5] = test system: NCI-H460 lung
[6] = test system: ACHN renal
[7] = test system: NCI-H226 lung
[8] = test system: SK-MEL-2 melanoma
[9] = test system: SW-620 colon
[10] = test system: SK-MEL-28 melanoma

| Structure (SMILES) | TGI [1] [µM] | TGI [2] [µM] | TGI [3] [µM] | TGI [4] [µM] | TGI [5] [µM] | TGI [6] [µM] | TGI [7] [µM] | TGI [8] [µM] | TGI [9] [µM] | TGI [10] [µM] |
| --- | --- | --- | --- | --- | --- | --- | --- | --- | --- | --- |
| C=CCOC(=O)N1c2ccc(O)cc2[C@@]23O[C@@]24[C@@H]1C#C/C=C\C#C[C@]3(O)C(OC)(OC)C[C@@H]4C | > 100 | 77.6 | 44.1 | > 100 | 83.3 | 72.3 | 74.3 | 58.3 | > 100 | > 100 |
| COC(=O)c1ccccc1/C=C1\Cc2ccc3c(c2C1=O)CCCC3 | > 100 | > 100 | > 100 | > 100 | > 100 | > 100 | > 100 | > 100 | > 100 | > 100 |
| C=CCOC(OCC=C)/C(Br)=C/C | 28.1 | > 100 | > 100 | > 100 | > 100 | 45.3 | > 100 | > 100 | > 100 | > 100 |
| C=CCN1/C(=C2\SC(=S)N(c3ccc(C)cc3)C2=O)Sc2c1ncn(C)c2=O | > 100 |  | > 100 |  | > 100 | > 100 | > 100 | > 100 | > 100 |  |
| CCOC(=O)[C@@]1(C)CC(O)C(=O)N1C (stereo partly drawn) | > 100 | > 100 | > 100 | > 100 |  | > 100 | > 100 | > 100 | > 100 | > 100 |
| O=C(OC1CN2CCC1CC2)N(c1ccccc1)c1ccccc1 (stereo not drawn) | > 100 | > 100 | > 100 | > 100 |  | > 100 | > 100 | > 100 |  | > 100 |
| CCCCc1ccc(Nc2nc(Cl)c3c(ncn3C3CC(Oc4ccc(C)cc4)C(COc4ccc(C)cc4)O3)n2)cc1 (stereo not drawn) | > 100 | > 100 | > 100 | > 100 | > 100 | > 100 | > 100 | > 100 | > 100 |  |
| S=c1nc(N/N=C/c2cccs2)c2cn[nH]c2[nH]1 | > 100 | 37.5 | > 100 | > 100 | 13.1 | > 100 | > 100 | > 100 | > 100 | > 100 |
| CC(=O)O[C@H]1C[C@@H](OC(C)=O)[C@@](C)(O)[C@@H]2[C@@H](OC(C)=O)[C@@]3(O)[C@H](/C=C(/CO)[C@H]4O[C@H]4[C@@H](OC(C)=O)[C@@]12C)OC(=O)[C@@H]3C | > 25 | > 25 | > 25 | 12 | > 25 | > 25 | > 25 | > 25 | > 25 | > 25 |
| CCN(CC)CC1CN=C(N)O1 (stereo not drawn) | > 100 | > 100 | > 100 | > 100 | > 100 | > 100 | > 100 | > 100 | > 100 | > 100 |
| Cc1cc(S(=O)(=O)Nc2nncn2-c2ccc(Cl)cc2)c(S)cc1Cl | > 10 | > 10 | > 10 | > 10 | > 10 | > 10 | > 10 | > 10 | > 10 | > 10 |
